From PubChem BioAssay (NCI) come the findings set out here.

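Cells were grown in 96-well plates and exposed to each compound for 48 hours at five concentrations; endpoints were interpolated linearly between bracketing concentrations, or set to the highest concentration if not reached. TGI marks complete inhibition of growth.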

Common to all, as to experiment: NCI tumour cell line growth inhibition, 48 h
The test system of experiment [1] is 786-0 renal.
Experiment [2] concerns A549 NSCLC.
The test system of experiment [3] is BT-549 breast.
Experiment [4] relates to COLO 205 colon.
For experiment [5], the system named is DU-145 prostate.
Experiment [6] relates to HCC-2998 colon.
Experiment [7] deals with HCT-15 colon.
Experiment [8] deals with MCF7 breast.
Experiment [9] deals with MOLT-4 leukemia.
For experiment [10], the system named is NCI/ADR-RES ovarian.
Experiment [11] relates to OVCAR-5 ovarian.
Experiment [12] deals with SK-MEL-2 melanoma.
The subject of experiment [13] is SNB-19 CNS.
Experiment [14] relates to SNB-75 CNS.
Experiment [15] concerns TK-10 renal.
For experiment [16], the system named is U251 CNS.
In experiment [17] the test system is UACC-257 melanoma.
Experiment [18] relates to UACC-62 melanoma.
Experiment [19] deals with A498 renal.

Take `CCOC(=O)c1nnsc1NC(=O)Nc1ccc(Cc2ccc(NC(=O)Nc3snnc3C(=O)OCC)cc2)cc1`: the TGI was 33.9 µM in experiment [1]; above 100 µM in experiment [2]; above 100 µM in experiment [3]; above 100 µM in experiment [4]; above 100 µM in [5]; above 100 µM in [6]. The TGI in experiment [7], in experiment [8], in experiment [9], in [10], in [11] and in experiment [12] was above 100 µM in each case. Also, the TGI in [13], in [14], in [15], in experiment [16], in [17] and in [18] was above 100 µM each time.
Consider `O=C(O)Cc1c(-c2ccc([N+](=O)[O-])cc2)c(=O)oc2cc(O)ccc12`, for which the TGI in experiment [1] was above 100 µM; in experiment [19] it was 70.2 µM; in experiment [2], above 100 µM; in [3] it was 59.1 µM; in experiment [4], above 100 µM; in [5] it was above 100 µM. Moreover, the TGI in experiment [6] was 55.5 µM; in [7] it was 75.7 µM; in experiment [8], 75.7 µM; in experiment [9], 26.8 µM; in experiment [10] it was 54.6 µM; in experiment [11] it was 98.9 µM. Also, the TGI in experiment [12] is 50.7 µM; in experiment [13], above 100 µM; in experiment [15], above 100 µM; in [16] it was 53.5 µM; in experiment [17], 53.5 µM; in [18], above 100 µM.
On to `CC(=O)N1C(OC(C)C)CC(C)N1c1ccccc1` (stereo not drawn), for which the TGI in experiment [1], in experiment [2], in experiment [3], in experiment [4], in [5] and in experiment [6] was above 10 µM throughout. The TGI in experiment [7], in experiment [8], in [9], in experiment [10], in experiment [11] and in [12] was above 10 µM throughout. Further, the TGI in experiment [13], in experiment [14], in experiment [15] and in [17] was above 10 µM in each case.
In the case of `COC(=O)[C@H](Cc1ccccc1)NP(=O)(OCCC#N)OCC1OC(n2cc(C)c(=O)[nH]c2=O)CC1N=[N+]=[N-]` (stereo partly drawn), the TGI in experiment [1], in [2], in experiment [3], in experiment [4], in [5] and in experiment [6] was above 100 µM each time. Moreover, the TGI in [7], in experiment [8], in experiment [9], in experiment [10], in experiment [11] and in [12] was above 100 µM throughout. Further, the TGI in experiment [13], in experiment [14], in [15], in experiment [16], in experiment [17] and in experiment [18] was above 100 µM in each case.
As to `NC(=O)Nc1ccc(S(=O)(=O)Nc2ccc(S(N)(=O)=O)cc2)cc1`, the TGI in [1], in experiment [19], in [2], in [3], in experiment [4] and in [5] was above 100 µM throughout. In addition, the TGI in experiment [7], in experiment [8], in experiment [10], in experiment [11], in [12] and in experiment [13] was above 100 µM in each case. Also, the TGI in experiment [15], in [16], in experiment [17] and in experiment [18] was above 100 µM in each case.
On to `c1cncc(C2(c3cc4ccccc4[nH]3)COCO2)c1` (stereo not drawn), for which the TGI in [1], in experiment [2], in [3], in experiment [4], in [5] and in [6] was above 100 µM in each case. The TGI in experiment [7], in experiment [8], in [9], in [10], in experiment [11] and in [12] was above 100 µM each time. The TGI in experiment [13], in experiment [14], in [15], in experiment [16], in experiment [17] and in [18] was above 100 µM throughout.
With `O=NN1C(c2ccccc2)CC(=NO)CC1c1ccccc1` (stereo not drawn), the TGI in [1], in [2], in experiment [3], in [4], in experiment [5] and in experiment [6] was above 100 µM each time. For the same molecule, the TGI in experiment [7], in experiment [8], in [9], in [10], in experiment [12] and in experiment [13] was above 100 µM in each case. The TGI in [14], in experiment [15], in experiment [16], in experiment [17] and in experiment [18] was above 100 µM in each case.
For `CN1CN(c2ccccc2)C2(CCN(Cc3csc4ccccc34)CC2)C1=O`, the TGI in experiment [1] was above 100 µM; in [2], 74 µM; in experiment [3], 20.5 µM; in experiment [4], 30.2 µM; in experiment [5], above 100 µM; in experiment [6] it was 42.5 µM. Further, the TGI was above 100 µM in experiment [7]; 37.3 µM in experiment [8]; 29.6 µM in [9]; 61.1 µM in [10]; 25.1 µM in experiment [11]; above 100 µM in [13]. The TGI in experiment [14] is above 100 µM; in experiment [15], 41.2 µM; in experiment [17] it was 31.9 µM; in experiment [18], above 100 µM.
With `Fc1ccc(Oc2nc3ccc(C(F)(F)F)cc3nc2-c2ccccc2)cc1`, the TGI in [1] was above 100 µM; in experiment [2], above 100 µM; in [3], above 100 µM; in experiment [4], above 100 µM; in experiment [5], above 100 µM; in experiment [6], 35.5 µM. The TGI in experiment [7], in experiment [8], in experiment [9], in experiment [10], in experiment [11] and in [12] was above 100 µM in each case. Further, the TGI in experiment [13], in experiment [14], in experiment [15], in experiment [17] and in experiment [18] was above 100 µM throughout.
For the molecule `COc1cc(C(=O)/C=C/c2ccc(OCC#N)cc2)cc(OC)c1OC`, the TGI is 37.9 µM in experiment [1]; 65.9 µM in [19]; 50.9 µM in [2]; 32 µM in experiment [3]; 39.5 µM in experiment [4]; 79.8 µM in experiment [5]. The TGI in experiment [6] was 30.6 µM; in experiment [7], 40.3 µM; in [8], 23.3 µM; in [9], 90.7 µM; in experiment [10], 48.3 µM; in experiment [11], above 100 µM. Moreover, the TGI is 54.4 µM in experiment [13]; 70.1 µM in experiment [15]; 33.4 µM in experiment [16]; above 100 µM in experiment [17]; 48.5 µM in experiment [18].
As for `CCCc1cc(=O)oc2c3c(c4c(c12)OC(C)(C)CC4)O[C@@H](C)[C@H](C)[C@H]3O`, the TGI in [1] came to 18.1 µM; in experiment [2], 25.7 µM; in experiment [3], 17.9 µM; in [4], 28.6 µM; in experiment [5], 31.8 µM; in experiment [6], 28.3 µM. Besides, the TGI in experiment [7] was 25.2 µM; in [8], 47.3 µM; in experiment [9] it was 13.7 µM; in experiment [10], 29.1 µM; in [11], 26.3 µM; in [12], 29.9 µM. For the same molecule, the TGI is 30.9 µM in experiment [13]; 22.5 µM in experiment [14]; 29.6 µM in experiment [16]; 17.7 µM in experiment [17]; 21.1 µM in experiment [18].
In the case of `CC(=O)OCCCC(NC(=O)OC(C)(C)C)C(=O)NC(CCCOC(C)=O)C(=O)NC(Cc1ccc([N+](=O)[O-])cc1)C(=O)NCC(=O)OCc1ccccc1` (stereo not drawn), the TGI amounted to 31.9 µM in [1]; 38.8 µM in [2]; 32.6 µM in [3]; 31.4 µM in [4]; 32.7 µM in experiment [5]; 33.4 µM in experiment [6]. Moreover, the TGI in experiment [7] is 30.2 µM; in [8] it was 32.2 µM; in [9] it was above 100 µM; in experiment [10], 41.8 µM; in [11], 31.4 µM; in experiment [12], 29.1 µM. The TGI in experiment [13] stood at 32.9 µM; in experiment [15], 43.3 µM; in [16] it was 32.8 µM; in experiment [17], 28.6 µM; in [18] it was 29 µM.
In the case of `O=C1N=C(SC(SC2=NC(=O)C3(NN2)c2ccccc2-c2ccccc23)=C(SC2=NC(=O)C3(NN2)c2ccccc2-c2ccccc23)SC2=NC(=O)C3(NN2)c2ccccc2-c2ccccc23)NNC12c1ccccc1-c1ccccc12`, the TGI in experiment [1], in experiment [2], in [3], in [4], in experiment [5] and in experiment [6] was above 10 µM throughout. In addition, the TGI was above 10 µM in experiment [7]; above 10 µM in experiment [8]; 2.95 µM in experiment [9]; above 10 µM in experiment [10]; above 10 µM in experiment [13]; above 10 µM in [14]. The TGI in experiment [15], in [17] and in experiment [18] was above 10 µM throughout.
On to `O=c1c2ccccc2nc(-c2cc3c(cc2Cl)Sc2nccn2S3(=O)=O)n1-c1ccccc1`, for which the TGI in [1] is 94.6 µM; in [2] it was above 100 µM; in experiment [3], above 100 µM; in experiment [4] it was above 100 µM; in experiment [5], 51.8 µM; in [6] it was 31 µM. The TGI in [7] is 33 µM; in experiment [8], 27.5 µM; in experiment [9] it was above 100 µM; in experiment [10] it was 46.8 µM; in experiment [11], above 100 µM; in experiment [12] it was 43.5 µM. The TGI in experiment [13] is above 100 µM; in experiment [14], 52.2 µM; in experiment [15], 49.9 µM; in [16], 30.5 µM; in experiment [17], 34.2 µM; in [18], 71.7 µM.
Turning to `CN1CC[C@]23c4c5ccc(O)c4O[C@H]2C(O)CC[C@@]3(O)[C@H]1C5` (stereo partly drawn), the TGI in experiment [1], in experiment [19], in experiment [2], in experiment [3], in experiment [4] and in experiment [5] was above 100 µM each time. For the same molecule, the TGI in experiment [7], in experiment [8], in [9], in [10], in experiment [11] and in experiment [12] was above 100 µM in each case. The TGI in experiment [13], in experiment [15], in experiment [16], in [17] and in experiment [18] was above 100 µM throughout.
Consider `Cc1ccc2nc3c(=O)[nH]c(=O)nc-3n(C)c2c1C`, for which the TGI in [1], in [2], in experiment [3], in experiment [4], in experiment [5] and in [6] was above 100 µM throughout. Besides, the TGI in [7], in experiment [8], in [9], in experiment [10], in experiment [11] and in [12] was above 100 µM each time. In addition, the TGI in [13], in [14], in experiment [15], in experiment [16], in experiment [17] and in experiment [18] was above 100 µM throughout.
